Laboratory results taken from PubChem BioAssay AID1963871 (Molecular Pharmacology Branch, DTP, NCI, 2024).

Test system: KRAS-mutant PDC multicell tumor spheroid viability
Assay: Anticancer human tumor 521955-158-R2-J5-PDC patient-derived pancreatic carcinoma cell line growth inhibition [KRAS2]
Conditions: for IC50: curve of first compound; for viability, T/C: stronger effect = lower value; active = viability on the fitted dose curve at most 10% of control; inactive = the rest
Outline: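 KRAS-mutant tumor cells were grown as spheroids with HUVEC endothelial cells and human MSCs as stroma. Targeted agents were tested alone and with KRAS pathway inhibitors. Doses started at or near clinical Cmax, or 10 microM, descending half-log.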

[1] = second compound 0.1 µM, first compound 0.0316 µM
[2] = second compound 0.316 µM, first compound 0.0316 µM
[3] = second compound 1 µM, first compound 0.0316 µM
[4] = second compound 3.16 µM, first compound 0.0316 µM
[5] = second compound 10 µM, first compound 0.0316 µM
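Also: viability read after seven days of drug exposure.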

CC(=O)Nc1cccc(-n2c(=O)n(C3CC3)c(=O)c3c(Nc4ccc(I)cc4F)n(C)c(=O)c(C)c32)c1 + COc1cc2nc(C)nc(NC(C)c3cc(N)cc(C(F)(F)F)c3)c2cc1OC1CCOC1
0.000209 µM: IC50 (second compound 0.316 µM)
0.000215 µM: IC50 (second compound 1 µM)
active: viability, T/C [2] 8.98% | viability, T/C [4] 5.44% | viability, T/C (second compound 10 µM, first compound 0.01 µM) 3.5% | viability, T/C [5] 1.26%
< 0.0001 µM: IC50 (second compound 10 µM)
0.00026 µM: IC50 (second compound 0.1 µM) | IC50 (second compound 3.16 µM)
inactive: viability, T/C (second compound 0.1 µM, first compound 0.0001 µM) 68.5% | viability, T/C (second compound 0.1 µM, first compound 0.000316 µM) 48% | viability, T/C (second compound 0.1 µM, first compound 0.001 µM) 26.1% | viability, T/C (second compound 0.1 µM, first compound 0.00316 µM) 26.2% | viability, T/C (second compound 0.1 µM, first compound 0.01 µM) 16.3% | viability, T/C [1] 12.7% | viability, T/C (second compound 0.316 µM, first compound 0.0001 µM) 58.5% | viability, T/C (second compound 0.316 µM, first compound 0.000316 µM) 46.4% | viability, T/C (second compound 0.316 µM, first compound 0.001 µM) 30.6% | viability, T/C (second compound 0.316 µM, first compound 0.00316 µM) 24.8% | viability, T/C (second compound 0.316 µM, first compound 0.01 µM) 16.7% | viability, T/C (second compound 1 µM, first compound 0.0001 µM) 65.2% | viability, T/C (second compound 1 µM, first compound 0.000316 µM) 39.3% | viability, T/C (second compound 1 µM, first compound 0.001 µM) 31.4% | viability, T/C (second compound 1 µM, first compound 0.00316 µM) 19.9% | viability, T/C (second compound 1 µM, first compound 0.01 µM) 18.1% | viability, T/C [3] 7.44% | viability, T/C (second compound 3.16 µM, first compound 0.0001 µM) 63.6% | viability, T/C (second compound 3.16 µM, first compound 0.000316 µM) 46.9% | viability, T/C (second compound 3.16 µM, first compound 0.001 µM) 33.5% | viability, T/C (second compound 3.16 µM, first compound 0.00316 µM) 21.8% | viability, T/C (second compound 3.16 µM, first compound 0.01 µM) 16.8% | viability, T/C (second compound 10 µM, first compound 0.0001 µM) 33% | viability, T/C (second compound 10 µM, first compound 0.000316 µM) 37.1% | viability, T/C (second compound 10 µM, first compound 0.001 µM) 26.8% | viability, T/C (second compound 10 µM, first compound 0.00316 µM) 11.3%

COC(=O)c1ccc2c(C(=Nc3ccc(N(C)C(=O)CN4CCN(C)CC4)cc3)c3ccccc3)c(O)[nH]c2c1 + COc1cc2nc(C)nc(NC(C)c3cc(N)cc(C(F)(F)F)c3)c2cc1OC1CCOC1
2.71 µM: IC50 (second compound 0.316 µM)
< 0.0316 µM: IC50 (second compound 10 µM)
inactive: viability, T/C [1] 113% | viability, T/C (second compound 0.1 µM, first compound 0.1 µM) 118% | viability, T/C (second compound 0.1 µM, first compound 0.316 µM) 118% | viability, T/C (second compound 0.1 µM, first compound 1 µM) 138% | viability, T/C [2] 96.5% | viability, T/C (second compound 0.316 µM, first compound 0.1 µM) 105% | viability, T/C (second compound 0.316 µM, first compound 0.316 µM) 100% | viability, T/C (second compound 0.316 µM, first compound 1 µM) 102% | viability, T/C (second compound 0.316 µM, first compound 3.16 µM) 42.1% | viability, T/C [3] 96.8% | viability, T/C (second compound 1 µM, first compound 0.1 µM) 90.3% | viability, T/C (second compound 1 µM, first compound 0.316 µM) 108% | viability, T/C (second compound 1 µM, first compound 1 µM) 102% | viability, T/C [4] 111% | viability, T/C (second compound 3.16 µM, first compound 0.1 µM) 94.7% | viability, T/C (second compound 3.16 µM, first compound 0.316 µM) 112% | viability, T/C (second compound 3.16 µM, first compound 1 µM) 99.6% | viability, T/C [5] 17.9% | viability, T/C (second compound 10 µM, first compound 0.1 µM) 15.5%
2.01 µM: IC50 (second compound 0.1 µM)
1.84 µM: IC50 (second compound 1 µM)
1.78 µM: IC50 (second compound 3.16 µM)
active: viability, T/C (second compound 0.1 µM, first compound 3.16 µM) 3.03% | viability, T/C (second compound 0.1 µM, first compound 10 µM) 0.16% | viability, T/C (second compound 0.316 µM, first compound 10 µM) 0.17% | viability, T/C (second compound 1 µM, first compound 3.16 µM) 6.39% | viability, T/C (second compound 1 µM, first compound 10 µM) 0.16% | viability, T/C (second compound 3.16 µM, first compound 3.16 µM) 0.72% | viability, T/C (second compound 3.16 µM, first compound 10 µM) 0.58% | viability, T/C (second compound 10 µM, first compound 0.316 µM) 2.96% | viability, T/C (second compound 10 µM, first compound 1 µM) 0.51% | viability, T/C (second compound 10 µM, first compound 3.16 µM) 0.17% | viability, T/C (second compound 10 µM, first compound 10 µM) 0.22%
